Laboratory results reported in patent publication US20240226066A1, “CARDIOPROTECTION BY AUTOPHAGY INDUCTION AND METABOLIC REPROGRAMMING” (UNIVERSITE PARIS-SACLAY, priority 2021, published 2024).

System: H9C2 cells
Assay: Exogenous fatty acid oxidation (XF palmitate-BSA FAO substrate with mito stress test)
Assay type: cell-based, rat
Details: fatty acids as substrate
Procedure: FIG. 8C: the oxidation of the exogenous fatty acids was measured simultaneously using the XF palmitate-BSA FAO substrate kit with the mito stress test on XF cells. Before starting the test, 30 μL of XF palmitate-BSA CAM or BSA control substrate were added to the appropriate wells.
The XFe96 extracellular flow analyzer (Seahorse Biosciences, North Billerica, MA, USA) was used to measure the bioenergetic function of H9C2 cardiomyocytes. The H9C2 cells were seeded at 20 000 cells per well in XF96 cell culture microplates; all the pretreatments were carried out with serum-free cell culture medium. The Agilent Seahorse XF glycolysis stress test was performed to measure glycolytic function in the H9C2 cells; the extracellular acidification rate (ECAR) was measured sequentially by 3 injections, 10 mM glucose, 2 μM oligomycin and 50 mM 2-deoxy-D-glucose (2-DG). The Agilent Seahorse XF Cell Mito stress test measured key parameters of mitochondrial function by directly measuring the oxygen consumption rate (OCR) of the H9C2 cells. […] The oxidation of the exogenous fatty acids was measured simultaneously using the XF palmitate-BSA FAO substrate kit with the mitochondrial stress test on XF cells. […]
Next, the energy metabolism was analyzed in real time using the Seahorse technology in H9C2 cells.

## C[C@H]1O[C@@H](O[C@H]2[C@@H](O)C[C@H](O[C@H]3[C@@H](O)CC(O[C@H]4CC[C@@]5(C)[C@H](CC[C@@H]6[C@@H]5C[C@@H](O)[C@]5(C)[C@@H](C7=CC(=O)OC7)CC[C@]65O)C4)O[C@@H]3C)O[C@@H]2C)C[C@H](O)[C@@H]1O (stereo partly shown) [digoxin]
  oxidative phosphorylation: improved oxidative phosphorylation
